{
  "source": "paper PMC5218480",
  "about": "(PLoS ONE, 2017)",
  "tested_on": "MV-4-11 cells",
  "test": "Gene expression microarray analysis (Affymetrix PrimeView) and GSEA",
  "type": "cell-based, human",
  "set-up": "RFU PODN (11730768_x_at) / Fold change /veh PODN (11730768_x_at) / RFU LINC00158 (11744669_a_at) / Fold change /veh LINC00158 (11744669_a_at) / RFU DUSP10 (11751237_a_at) / Fold change /veh DUSP10 (11751237_a_at) / RFU ID3 (11757404_x_at) / Fold change /veh ID3 (11757404_x_at) / RFU PLEKHG5 (11737974_s_at) / Fold change /veh PLEKHG5 (11737974_s_at) / RFU LRRC4B (11730491_at) / Fold change /veh LRRC4B (11730491_at) / RFU GIMAP4 (11747438_a_at) / Fold change /veh GIMAP4 (11747438_a_at) / RFU KRT8 (11758183_x_at) / Fold change /veh KRT8 (11758183_x_at) / RFU CNN1 (11734310_a_at) / Fold change /veh CNN1 (11734310_a_at) / RFU VPS37D (11726825_at) / Fold change /veh VPS37D (11726825_at) / RFU C10orf10 (11716522_x_at) / Fold change /veh C10orf10 (11716522_x_at) / RFU KIR2DL2 /// KIR2DL4 /// KIR2DL5A /// KIR2DL5B /// KIR2DS1 /// KIR2DS2 /// KIR2DS3 /// KIR2DS4 /// KIR3DL3 /// KIR3DL3 /// KIR3DS1 (11738374_at) / Fold change /veh KIR2DL2 /// KIR2DL4 /// KIR2DL5A /// KIR2DL5B /// KIR2DS1 /// KIR2DS2 /// KIR2DS3 /// KIR2DS4 /// KIR3DL3 /// KIR3DL3 /// KIR3DS1 (11738374_at) / RFU C1QL1 (11718748_at) / Fold change /veh C1QL1 (11718748_at) / RFU TMPRSS4 (11747572_a_at) / Fold change /veh TMPRSS4 (11747572_a_at) / RFU HAMP (11756126_x_at) / Fold change /veh HAMP (11756126_x_at) / RFU RNFT2 (11725882_a_at) / Fold change /veh RNFT2 (11725882_a_at) / RFU NR4A2 (11747474_a_at) / Fold change /veh NR4A2 (11747474_a_at) / RFU ABCC12 (11746883_a_at) / Fold change /veh ABCC12 (11746883_a_at) / RFU TMEM136 (11760407_x_at) / Fold change /veh TMEM136 (11760407_x_at) / RFU CLDN22 /// WWC2 (11732394_at) / Fold change /veh CLDN22 /// WWC2 (11732394_at) / RFU HLA-DPB1 (11760878_x_at) / Fold change /veh HLA-DPB1 (11760878_x_at) / RFU SPINT1 (11716480_a_at) / Fold change /veh SPINT1 (11716480_a_at) / RFU GAP43 (11754022_s_at) / Fold change /veh GAP43 (11754022_s_at) / RFU A4GNT (11735810_at) / Fold change /veh A4GNT (11735810_at) / RFU PRB3 (11715151_x_at) / Fold change /veh PRB3 (11715151_x_at) / RFU TUBB4B (11761932_at) / Fold change /veh TUBB4B (11761932_at) / RFU CAPN14 (11732068_a_at) / Fold change /veh CAPN14 (11732068_a_at) / RFU TMCC2 (11721928_a_at) / Fold change /veh TMCC2 (11721928_a_at) / RFU IRGQ (11745062_a_at) / Fold change /veh IRGQ (11745062_a_at) / RFU FAM174B (11720279_a_at) / Fold change /veh FAM174B (11720279_a_at) / RFU TMPRSS4 (11748680_a_at) / Fold change /veh TMPRSS4 (11748680_a_at) / RFU FAM212B (11763350_a_at) / Fold change /veh FAM212B (11763350_a_at) / RFU PLEKHG5 (11743358_a_at) / Fold change /veh PLEKHG5 (11743358_a_at) / RFU ZSCAN30 (11745921_a_at) / Fold change /veh ZSCAN30 (11745921_a_at) / RFU CMKLR1 (11741424_a_at) / Fold change /veh CMKLR1 (11741424_a_at) / RFU LOC101060620 /// MAPK8IP1 (11723275_at) / Fold change /veh LOC101060620 /// MAPK8IP1 (11723275_at) / RFU SPTSSB (11747773_x_at) / Fold change /veh SPTSSB (11747773_x_at) / RFU PRSS12 (11739890_at) / Fold change /veh PRSS12 (11739890_at) / RFU BIN1 (11741810_x_at) / Fold change /veh BIN1 (11741810_x_at) / RFU WNT11 (11732464_a_at) / Fold change /veh WNT11 (11732464_a_at) / RFU C10orf10 (11716521_a_at) / Fold change /veh C10orf10 (11716521_a_at) / RFU C5orf56 (11738089_at) / Fold change /veh C5orf56 (11738089_at) / RFU CYB561 (11721691_x_at) / Fold change /veh CYB561 (11721691_x_at) / RFU ANKRD19P (11752326_a_at) / Fold change /veh ANKRD19P (11752326_a_at) / RFU OR2T12 /// OR2T33 /// OR2T8 (11738714_s_at) / Fold change /veh OR2T12 /// OR2T33 /// OR2T8 (11738714_s_at) / RFU VCAN (11748164_a_at) / Fold change /veh VCAN (11748164_a_at) / RFU JSRP1 (11732532_at) / Fold change /veh JSRP1 (11732532_at) / RFU KRTAP10-11 (11738290_x_at) / Fold change /veh KRTAP10-11 (11738290_x_at) / RFU MYO3A (11730013_a_at) / Fold change /veh MYO3A (11730013_a_at) / RFU EBF3 (11725865_a_at) / Fold change /veh EBF3 (11725865_a_at) / RFU CAMK2N1 (11719241_x_at) / Fold change /veh CAMK2N1 (11719241_x_at) / RFU C5orf56 (11738088_a_at) / Fold change /veh C5orf56 (11738088_a_at) / RFU OLFML3 (11715873_a_at) / Fold change /veh OLFML3 (11715873_a_at) / RFU LOC100653217 /// NTM (11731650_a_at) / Fold change /veh LOC100653217 /// NTM (11731650_a_at) / RFU MAPK11 (11762145_a_at) / Fold change /veh MAPK11 (11762145_a_at) / RFU FIZ1 (11724087_x_at) / Fold change /veh FIZ1 (11724087_x_at) / RFU OASL (11726364_x_at) / Fold change /veh OASL (11726364_x_at) / RFU SOX15 (11748057_x_at) / Fold change /veh SOX15 (11748057_x_at) / RFU CD79A (11719716_a_at) / Fold change /veh CD79A (11719716_a_at) / RFU HIST1H1D (11736915_at) / Fold change /veh HIST1H1D (11736915_at) / RFU CASKIN2 (11723855_a_at) / Fold change /veh CASKIN2 (11723855_a_at) / RFU LOC730098 (11760151_x_at) / Fold change /veh LOC730098 (11760151_x_at) / RFU OR4N2 (11742367_at) / Fold change /veh OR4N2 (11742367_at) / RFU PRRT2 (11749266_a_at) / Fold change /veh PRRT2 (11749266_a_at) / RFU SNX32 (11753110_a_at) / Fold change /veh SNX32 (11753110_a_at) / RFU CDHR5 (11726645_a_at) / Fold change /veh CDHR5 (11726645_a_at) / RFU RCAN1 (11760418_a_at) / Fold change /veh RCAN1 (11760418_a_at) / RFU FAM167A (11723789_a_at) / Fold change /veh FAM167A (11723789_a_at) / RFU FAM26E (11764081_at) / Fold change /veh FAM26E (11764081_at) / RFU ISYNA1 (11749810_s_at) / Fold change /veh ISYNA1 (11749810_s_at) / RFU ACY1 (11761880_at) / Fold change /veh ACY1 (11761880_at) / RFU 11764098_at / Fold change /veh 11764098_at / RFU SAMD14 (11745864_x_at) / Fold change /veh SAMD14 (11745864_x_at) / RFU NPB (11741838_a_at) / Fold change /veh NPB (11741838_a_at) / RFU TMPRSS6 (11731388_a_at) / Fold change /veh TMPRSS6 (11731388_a_at) / RFU KRTAP10-2 (11738614_at) / Fold change /veh KRTAP10-2 (11738614_at) / RFU ARHGAP8 /// PRR5-ARHGAP8 (11727945_x_at) / Fold change /veh ARHGAP8 /// PRR5-ARHGAP8 (11727945_x_at) / RFU KRTAP5-7 /// NADSYN1 (11734609_at) / Fold change /veh KRTAP5-7 /// NADSYN1 (11734609_at) / RFU RASL12 (11751679_a_at) / Fold change /veh RASL12 (11751679_a_at) / RFU CDKN2B (11736163_a_at) / Fold change /veh CDKN2B (11736163_a_at) / RFU PRF1 (11729649_at) / Fold change /veh PRF1 (11729649_at) / RFU, ZNF638 /// ZNF638-IT1 / Fold change vs veh, ZNF638 /// ZNF638-IT1 / RFU, PANK3 / Fold change vs veh, PANK3 / RFU, SH3YL1 / Fold change vs veh, SH3YL1 / RFU, ZEB2 / Fold change vs veh, ZEB2 / RFU, NRIP1 / Fold change vs veh, NRIP1 / RFU, PTTG1IP / Fold change vs veh, PTTG1IP / RFU, CAPN2 / Fold change vs veh, CAPN2 / RFU, MED14 / Fold change vs veh, MED14 / RFU, SNORA58 / Fold change vs veh, SNORA58 / RFU, C1orf63 / Fold change vs veh, C1orf63 / RFU, LRRFIP1 / Fold change vs veh, LRRFIP1 / RFU, NDUFAF7 / Fold change vs veh, NDUFAF7 / RFU, SLC12A2 / Fold change vs veh, SLC12A2 / RFU, IBTK / Fold change vs veh, IBTK / RFU, ESF1 / Fold change vs veh, ESF1 / Fold change vs veh, TMEM50B / RFU, TAOK1 / Fold change vs veh, TAOK1 / RFU, ACBD3 / Fold change vs veh, ACBD3 / RFU, TMA16 / Fold change vs veh, TMA16 / RFU, RWDD3 / Fold change vs veh, RWDD3 / RFU, BCAT1 / Fold change vs veh, BCAT1 / RFU, EDEM3 / Fold change vs veh, EDEM3 / RFU, TMEM33 / Fold change vs veh, TMEM33 / RFU, WDR75 / Fold change vs veh, WDR75 / RFU, AHCTF1 / Fold change vs veh, AHCTF1 / RFU, TFRC / Fold change vs veh, TFRC / RFU, ZDHHC17 / Fold change vs veh, ZDHHC17 / RFU, NOM1 / Fold change vs veh, NOM1 / RFU, ARL8B / Fold change vs veh, ARL8B / RFU, ZBTB11 / Fold change vs veh, ZBTB11 / RFU, TAMM41 / Fold change vs veh, TAMM41 / RFU, KIAA1704 /// LOC100996395 / Fold change vs veh, KIAA1704 /// LOC100996395 / RFU, ING1 / Fold change vs veh, ING1 / RFU, TRMT61B / Fold change vs veh, TRMT61B / RFU, FUBP3 / Fold change vs veh, FUBP3 / RFU, TP53 / Fold change vs veh, TP53 / RFU, TNKS2 / Fold change vs veh, TNKS2 / RFU, ZFP14 / Fold change vs veh, ZFP14 / RFU, ACTR2 / Fold change vs veh, ACTR2 / RFU, PPP3R1 / Fold change vs veh, PPP3R1 / RFU, PIK3R1 / Fold change vs veh, PIK3R1 / RFU, HNRNPA1 / Fold change vs veh, HNRNPA1 / RFU, RNF170 / Fold change vs veh, RNF170 / RFU, ZNF28 / Fold change vs veh, ZNF28 / RFU, RNGTT / Fold change vs veh, RNGTT / RFU, OGT / Fold change vs veh, OGT / RFU, BRD1 / Fold change vs veh, BRD1 / RFU, MARS / Fold change vs veh, MARS / RFU, ZNF655 / Fold change vs veh, ZNF655 / RFU, FAHD1 / Fold change vs veh, FAHD1 / RFU, BDP1 / Fold change vs veh, BDP1 / RFU, LRRCC1 / Fold change vs veh, LRRCC1 / RFU, ARID1A / Fold change vs veh, ARID1A / RFU, ZNF146 / Fold change vs veh, ZNF146 / RFU, ZNF330 / Fold change vs veh, ZNF330 / RFU, GPN3 / Fold change vs veh, GPN3 / RFU, C9orf123 / Fold change vs veh, C9orf123 / RFU, N4BP2L2 / Fold change vs veh, N4BP2L2 / RFU, ARFIP1 / Fold change vs veh, ARFIP1 / RFU, FAM179B / Fold change vs veh, FAM179B / RFU, BCL10 / Fold change vs veh, BCL10 / RFU, UHRF1BP1L / Fold change vs veh, UHRF1BP1L / RFU, BET1 / Fold change vs veh, BET1 / RFU, CNOT2 / Fold change vs veh, CNOT2 / RFU, ZNF268 / Fold change vs veh, ZNF268 / Fold change vs veh, ZNF507 / RFU, DGCR2 / Fold change vs veh, DGCR2 / RFU, WDSUB1 / Fold change vs veh, WDSUB1 / Fold change vs veh, HSP90B1 /// MIR3652 / RFU, ADSS / Fold change vs veh, ADSS / RFU, GK / Fold change vs veh, GK / RFU, ZNF148 / Fold change vs veh, ZNF148 / RFU, TAF9 / Fold change vs veh, TAF9 / RFU, SLC1A5 / Fold change vs veh, SLC1A5 / RFU, SLMO2 / Fold change vs veh, SLMO2 / RFU, ABCC4 / Fold change vs veh, ABCC4 / RFU, LOC101060439 /// RAP1B / Fold change vs veh, LOC101060439 /// RAP1B / RFU, RFX7 / Fold change vs veh, RFX7 / RFU, GTPBP10 / Fold change vs veh, GTPBP10 / RFU, CNEP1R1 / Fold change vs veh, CNEP1R1 / RFU, BIVM-ERCC5 /// ERCC5 / Fold change vs veh, BIVM-ERCC5 /// ERCC5 / RFU, ILF3 / Fold change vs veh, ILF3 / RFU 11762660_at / Fold change /veh 11762660_at / RFU VCAN (11757783_s_at) / Fold change /veh VCAN (11757783_s_at) / RFU DDX43 (11728927_at) / Fold change /veh DDX43 (11728927_at) / RFU KRT8 (11758188_x_at) / Fold change /veh KRT8 (11758188_x_at) / RFU NKD1 (11759106_at) / Fold change /veh NKD1 (11759106_at) / RFU SRD5A1 (11742802_a_at) / Fold change /veh SRD5A1 (11742802_a_at) / RFU TPSAB1 /// TPSB2 (11721975_s_at) / Fold change /veh TPSAB1 /// TPSB2 (11721975_s_at) / RFU GSTM3 (11746129_a_at) / Fold change /veh GSTM3 (11746129_a_at) / RFU IL23R (11737362_x_at) / Fold change /veh IL23R (11737362_x_at) / RFU TMEM51 (11727254_a_at) / Fold change /veh TMEM51 (11727254_a_at) / RFU PIWIL2 (11732686_x_at) / Fold change /veh PIWIL2 (11732686_x_at) / RFU ORM1 (11744905_x_at) / Fold change /veh ORM1 (11744905_x_at) / RFU CCDC152 (11743942_at) / Fold change /veh CCDC152 (11743942_at) / RFU ECM1 (11717891_a_at) / Fold change /veh ECM1 (11717891_a_at) / RFU IL23R (11748794_a_at) / Fold change /veh IL23R (11748794_a_at) / RFU TNFAIP8L3 (11732012_x_at) / Fold change /veh TNFAIP8L3 (11732012_x_at) / RFU MBOAT4 (11741988_at) / Fold change /veh MBOAT4 (11741988_at) / RFU 11764193_at / Fold change /veh 11764193_at / RFU TMEM53 (11763286_at) / Fold change /veh TMEM53 (11763286_at) / RFU MAGEB2 (11727129_at) / Fold change /veh MAGEB2 (11727129_at) / RFU TMEM200A (11744735_a_at) / Fold change /veh TMEM200A (11744735_a_at) / RFU CCDC152 (11751479_a_at) / Fold change /veh CCDC152 (11751479_a_at) / RFU FAM211A (11726209_a_at) / Fold change /veh FAM211A (11726209_a_at) / RFU RGS16 (11746705_a_at) / Fold change /veh RGS16 (11746705_a_at) / RFU VCAN (11755009_s_at) / Fold change /veh VCAN (11755009_s_at) / RFU RHOB (11743442_s_at) / Fold change /veh RHOB (11743442_s_at) / RFU RGS16 (11720943_a_at) / Fold change /veh RGS16 (11720943_a_at) / RFU RGS16 (11720944_at) / Fold change /veh RGS16 (11720944_at) / RFU, VPS4B / Fold change vs veh, VPS4B / RFU, CREB1 / Fold change vs veh, CREB1 / RFU, DNAJC13 / Fold change vs veh, DNAJC13 / RFU, GNAQ / Fold change vs veh, GNAQ / RFU, CDK5R1 / Fold change vs veh, CDK5R1 / RFU, ZRANB3 / Fold change vs veh, ZRANB3 / RFU, CUL4A / Fold change vs veh, CUL4A / RFU, CCNY / Fold change vs veh, CCNY / RFU, UFL1 / Fold change vs veh, UFL1 / RFU, COG3 / Fold change vs veh, COG3 / RFU, DIAPH2 / Fold change vs veh, DIAPH2 / RFU, SKA2 / Fold change vs veh, SKA2 / RFU, AFF3 / Fold change vs veh, AFF3 / RFU, LMF1 / Fold change vs veh, LMF1 / RFU, IPO11 / Fold change vs veh, IPO11 / RFU, DFFB / Fold change vs veh, DFFB / RFU, FOXP1 / Fold change vs veh, FOXP1 / RFU, CARD8 / Fold change vs veh, CARD8 / RFU, STRN3 / Fold change vs veh, STRN3 / RFU, ADK / Fold change vs veh, ADK / RFU, RASSF2 / Fold change vs veh, RASSF2 / RFU, WIPF1 / Fold change vs veh, WIPF1 / RFU, LARP1B / Fold change vs veh, LARP1B / RFU, RASA1 / Fold change vs veh, RASA1 / RFU, RB1 / Fold change vs veh, RB1 / RFU, PPFIA1 / Fold change vs veh, PPFIA1 / RFU, MAT2A / Fold change vs veh, MAT2A / RFU, CCT5 / Fold change vs veh, CCT5 / RFU, WDR92 / Fold change vs veh, WDR92 / RFU, CUX1 / Fold change vs veh, CUX1 / RFU, TTC7A / Fold change vs veh, TTC7A / RFU, TMEM135 / Fold change vs veh, TMEM135 / RFU, DEPTOR / Fold change vs veh, DEPTOR / RFU, CPM / Fold change vs veh, CPM / RFU, DNAJB6 / Fold change vs veh, DNAJB6 / RFU, CACNA2D3 / Fold change vs veh, CACNA2D3 / RFU, DTX4 / Fold change vs veh, DTX4 / RFU, TFCP2 / Fold change vs veh, TFCP2 / RFU, GMCL1 /// GMCL1P1 / Fold change vs veh, GMCL1 /// GMCL1P1 / RFU, AEBP2 / Fold change vs veh, AEBP2 / RFU, SNHG1 /// SNORD22 /// SNORD25 /// SNORD26 /// SNORD27 /// SNORD28 /// SNORD29 /// SNORD31 / Fold change vs veh, SNHG1 /// SNORD22 /// SNORD25 /// SNORD26 /// SNORD27 /// SNORD28 /// SNORD29 /// SNORD31 / Fold change (Aza/veh), C12orf56 (ProbeSet 11735607_a_at) / Fold change (ACY-1035/veh), C12orf56 (ProbeSet 11735607_a_at) / Fold change (Aza/veh), FGFR1OP (ProbeSet 11751329_s_at) / Fold change (ACY-1035/veh), FGFR1OP (ProbeSet 11751329_s_at) / Fold change (Aza/veh), VPS36 (ProbeSet 11739960_a_at) / Fold change (ACY-1035/veh), VPS36 (ProbeSet 11739960_a_at) / RFU SYPL1 (11715823_x_at) / Fold change /veh SYPL1 (11715823_x_at) / RFU IGFBP7 (11715501_s_at) / Fold change /veh IGFBP7 (11715501_s_at) / RFU REEP3 (11722064_at) / Fold change /veh REEP3 (11722064_at) / RFU IGLL1 (11728026_x_at) / Fold change /veh IGLL1 (11728026_x_at): dose or concentration left out as unconfirmed",
  "details": "MV-4-11 cells, 48 hours",
  "data": [
    {"smiles": "Nc1ccc(-c2cccs2)cc1NC(=O)c1ccc2c(c1)cc(C1CC1)n2CCN1CCOCC1", "note": "[ACY-1035]", "values": [
      {"measurement": "Fold change /veh ANKRD19P (11752326_a_at)", "result": 1.02}
    ]}
  ]
}
